According to patent publication US10004732B2 (Novartis AG, priority 2014, dated 2018):
Structures can show the parent of a compound that is named as a salt.

Key:
PI 3-kinase delta [1] = molecular target: T1, PI 3-kinase delta (Homo sapiens, UniProt O00329); test: Cellular assay J1, p-Akt (S473) in Rat-1 cells, Surefire format; assay type: cell-based; details: non-asterisked data: version J1 (Surefire format), Rat-1 cells; read-out: Assay J PI3Kδ IC50
Target sequence in this assay (O00329 whole entry): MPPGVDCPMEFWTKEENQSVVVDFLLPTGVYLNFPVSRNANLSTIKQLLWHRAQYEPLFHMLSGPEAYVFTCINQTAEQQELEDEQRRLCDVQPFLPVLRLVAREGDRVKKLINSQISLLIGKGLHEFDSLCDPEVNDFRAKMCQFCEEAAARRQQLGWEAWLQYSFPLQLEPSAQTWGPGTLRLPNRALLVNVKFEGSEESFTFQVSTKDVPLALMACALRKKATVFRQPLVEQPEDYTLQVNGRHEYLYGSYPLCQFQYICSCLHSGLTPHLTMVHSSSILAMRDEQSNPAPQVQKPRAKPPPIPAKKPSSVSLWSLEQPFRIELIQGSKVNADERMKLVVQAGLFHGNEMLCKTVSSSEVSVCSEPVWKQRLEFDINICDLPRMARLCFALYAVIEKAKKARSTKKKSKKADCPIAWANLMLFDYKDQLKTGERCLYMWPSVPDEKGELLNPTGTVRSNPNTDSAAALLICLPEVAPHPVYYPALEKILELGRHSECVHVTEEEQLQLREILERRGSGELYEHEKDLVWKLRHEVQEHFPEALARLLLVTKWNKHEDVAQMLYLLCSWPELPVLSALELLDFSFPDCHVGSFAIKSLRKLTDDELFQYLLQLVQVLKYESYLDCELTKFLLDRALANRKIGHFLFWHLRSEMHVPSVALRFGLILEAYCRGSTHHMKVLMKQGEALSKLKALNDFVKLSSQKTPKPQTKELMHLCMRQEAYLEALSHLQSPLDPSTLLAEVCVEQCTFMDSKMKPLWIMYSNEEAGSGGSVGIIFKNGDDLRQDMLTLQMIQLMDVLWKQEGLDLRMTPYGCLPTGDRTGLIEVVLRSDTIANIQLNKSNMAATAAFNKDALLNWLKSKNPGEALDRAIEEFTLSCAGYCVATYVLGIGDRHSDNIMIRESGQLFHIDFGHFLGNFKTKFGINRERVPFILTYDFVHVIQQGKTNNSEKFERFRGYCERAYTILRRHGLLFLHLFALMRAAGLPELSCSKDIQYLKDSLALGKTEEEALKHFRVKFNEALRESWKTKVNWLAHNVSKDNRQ
Target sequence in this assay (Q63787 whole entry partner): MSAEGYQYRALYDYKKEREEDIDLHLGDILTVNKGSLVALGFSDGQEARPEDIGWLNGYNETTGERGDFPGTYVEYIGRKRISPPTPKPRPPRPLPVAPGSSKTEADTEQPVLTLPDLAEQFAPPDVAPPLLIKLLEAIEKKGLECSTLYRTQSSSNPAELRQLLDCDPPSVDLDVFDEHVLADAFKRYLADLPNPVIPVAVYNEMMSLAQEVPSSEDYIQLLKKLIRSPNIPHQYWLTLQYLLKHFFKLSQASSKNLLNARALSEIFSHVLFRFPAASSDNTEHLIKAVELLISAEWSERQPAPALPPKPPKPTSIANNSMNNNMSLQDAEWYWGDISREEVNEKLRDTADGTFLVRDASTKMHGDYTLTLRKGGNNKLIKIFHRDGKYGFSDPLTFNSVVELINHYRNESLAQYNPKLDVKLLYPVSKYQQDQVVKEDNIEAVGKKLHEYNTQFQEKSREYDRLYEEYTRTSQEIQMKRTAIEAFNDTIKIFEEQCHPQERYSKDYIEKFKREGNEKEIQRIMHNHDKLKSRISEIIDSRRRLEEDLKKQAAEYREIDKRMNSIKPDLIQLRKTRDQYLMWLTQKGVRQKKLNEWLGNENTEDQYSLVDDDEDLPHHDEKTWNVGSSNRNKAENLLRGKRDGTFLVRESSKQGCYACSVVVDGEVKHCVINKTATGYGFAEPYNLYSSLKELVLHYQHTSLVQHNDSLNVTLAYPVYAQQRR
Text: (§1) Cellular Assays for PI 3-Kinase Alpha (H1), Beta (I1) and Delta (J1): Surefire Format
(§2) AlphaScreen (Amplified Luminescent Proximity Homogeneous Assay, ALPHA, Perkin Elmer) is a non-radioactive bead-based proximity assay technology to study biomolecular interactions in a homogenous microtiter plate format. The brand name SureFire denotes AlphaScreen assays that are adapted to quantify the phosphorylation of endogenous cellular proteins in cell lysates, by using matched antibody pairs, which consist of an anti-phospho-kinase and an anti-kinase antibody. The assay allows characterization of kinase signaling in cells as well as measurement of kinase inhibitor effects.
(§3) Using Rat-1 cells stably expressing myr-HA-tagged versions of the human PI3Kdelta, PI3Kalpha, or PI3Kbeta p110 catalytic subunit isoforms, the assay was developed as a two-plate protocol in a 384-well format.
(§4) For compound testing, the cells were seeded at a density of 4000 (Rat-1_PI3Kdelta), 7500 (Rat-1_PI3Kalpha), or 6200 (Rat-1_PI3Kbeta) cells in 20 μl complete growth medium into cell culture treated 384-well plates and were grown at 37° C./5% CO2/90% humidity for 24 h. Shortly before compound transfer, the complete medium was removed, 30 μl assay buffer (DMEM high glucose, 1×MEM NEAA, 10 mM HEPES, 2 mM L-glutamine, 0.1% (w/v) BSA) was added and 10 μl of the compound predilutions were transferred to the cells.

PI 3-kinase beta [2] = molecular target: T2, PI 3-kinase beta (Homo sapiens, UniProt P42338); test: Cellular assay I1, p-Akt (S473) in Rat-1 cells, Surefire format; assay type: cell-based; details: non-asterisked data: version I1 (Surefire format), Rat-1 cells; read-out: Assay I PI3Kβ IC50
PI 3-kinase alpha [3] = molecular target: T3, PI 3-kinase alpha (Homo sapiens, UniProt P42336); test: Cellular assay H1, p-Akt (S473) in Rat-1 cells, Surefire format; assay type: cell-based; details: non-asterisked data: version H1 (Surefire format), Rat-1 cells; read-out: Assay H PI3Kα IC50
Target sequence in this assay (P42336 whole entry): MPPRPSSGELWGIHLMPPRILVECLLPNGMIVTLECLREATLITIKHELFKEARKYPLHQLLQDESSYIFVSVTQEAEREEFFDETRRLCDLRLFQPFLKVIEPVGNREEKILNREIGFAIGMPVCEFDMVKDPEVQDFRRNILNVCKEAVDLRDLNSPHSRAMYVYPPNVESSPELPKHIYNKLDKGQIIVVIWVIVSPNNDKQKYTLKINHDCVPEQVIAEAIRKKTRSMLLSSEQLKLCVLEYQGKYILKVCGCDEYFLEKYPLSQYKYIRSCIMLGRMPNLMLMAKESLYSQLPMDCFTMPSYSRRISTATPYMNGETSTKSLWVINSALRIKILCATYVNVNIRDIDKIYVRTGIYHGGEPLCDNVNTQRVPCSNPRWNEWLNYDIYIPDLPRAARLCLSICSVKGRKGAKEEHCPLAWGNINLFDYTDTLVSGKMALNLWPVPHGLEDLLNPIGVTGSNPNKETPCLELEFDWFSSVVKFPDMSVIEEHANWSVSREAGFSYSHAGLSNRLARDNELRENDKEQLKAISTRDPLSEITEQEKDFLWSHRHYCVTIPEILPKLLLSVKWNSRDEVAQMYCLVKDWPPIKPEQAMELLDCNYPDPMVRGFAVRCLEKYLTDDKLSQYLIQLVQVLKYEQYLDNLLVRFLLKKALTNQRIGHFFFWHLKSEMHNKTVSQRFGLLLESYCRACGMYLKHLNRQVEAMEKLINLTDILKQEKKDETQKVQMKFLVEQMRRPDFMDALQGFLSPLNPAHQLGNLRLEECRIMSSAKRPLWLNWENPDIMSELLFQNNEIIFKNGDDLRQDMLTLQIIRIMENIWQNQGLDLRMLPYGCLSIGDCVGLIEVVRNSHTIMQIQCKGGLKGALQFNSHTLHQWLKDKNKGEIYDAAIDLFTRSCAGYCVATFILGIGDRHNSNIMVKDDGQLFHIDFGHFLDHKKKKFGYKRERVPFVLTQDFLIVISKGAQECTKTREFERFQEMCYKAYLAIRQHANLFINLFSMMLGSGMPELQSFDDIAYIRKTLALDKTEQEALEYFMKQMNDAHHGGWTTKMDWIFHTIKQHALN
Target sequence in this assay (Q63787 whole entry partner): as the sequence (Q63787 whole entry partner) above
Text: as §1, §2, §3, §4

[4] = Microsomal clearance assay (M); details: intrinsic clearance in rat liver microsomes
Experimental: The experiments were performed in 96-well glass plates at 37° C. on an automated Tecan EVO platform. Test compounds at a concentration of 10 mM in pure DMSO were diluted 1:1000 in water to 10 μM. […] Reactions were initiated by the addition of 150 μL of a cofactor solution containing 2 mM NADPH.

PI 3-kinase gamma [5] = molecular target: T4, PI 3-kinase gamma (Homo sapiens, UniProt P48736); test: TR-FRET Adapta assay, assay E; assay type: biochemical; details: read-out: Assay E PI3Kγ IC50
PI 3-kinase alpha [6] = molecular target: T3, PI 3-kinase alpha; test: Kinase Glo Luminescent Kinase Assay (Kglo), assay A; assay type: biochemical; details: read-out: Assay A PI3Kα IC50
Target sequence in this assay (P42336 whole entry): as the sequence (P42336 whole entry) above

PI 3-kinase gamma [7] = molecular target: T4, PI 3-kinase gamma; test: Cellular U937 AKT assay K1 (MSD); assay type: cell-based; details: U937 cells, K1 format; read-out: Assay K1 PI3Kγ IC50
PI 4-kinase beta = PI 4-kinase beta (Homo sapiens, UniProt Q9UBF8); test: Kinase Glo Luminescent Kinase Assay (Kglo), assay D; assay type: biochemical; details: read-out: Assay D PI4Kβ IC50
Chain of PI 4-kinase beta (Q9UBF8 whole entry): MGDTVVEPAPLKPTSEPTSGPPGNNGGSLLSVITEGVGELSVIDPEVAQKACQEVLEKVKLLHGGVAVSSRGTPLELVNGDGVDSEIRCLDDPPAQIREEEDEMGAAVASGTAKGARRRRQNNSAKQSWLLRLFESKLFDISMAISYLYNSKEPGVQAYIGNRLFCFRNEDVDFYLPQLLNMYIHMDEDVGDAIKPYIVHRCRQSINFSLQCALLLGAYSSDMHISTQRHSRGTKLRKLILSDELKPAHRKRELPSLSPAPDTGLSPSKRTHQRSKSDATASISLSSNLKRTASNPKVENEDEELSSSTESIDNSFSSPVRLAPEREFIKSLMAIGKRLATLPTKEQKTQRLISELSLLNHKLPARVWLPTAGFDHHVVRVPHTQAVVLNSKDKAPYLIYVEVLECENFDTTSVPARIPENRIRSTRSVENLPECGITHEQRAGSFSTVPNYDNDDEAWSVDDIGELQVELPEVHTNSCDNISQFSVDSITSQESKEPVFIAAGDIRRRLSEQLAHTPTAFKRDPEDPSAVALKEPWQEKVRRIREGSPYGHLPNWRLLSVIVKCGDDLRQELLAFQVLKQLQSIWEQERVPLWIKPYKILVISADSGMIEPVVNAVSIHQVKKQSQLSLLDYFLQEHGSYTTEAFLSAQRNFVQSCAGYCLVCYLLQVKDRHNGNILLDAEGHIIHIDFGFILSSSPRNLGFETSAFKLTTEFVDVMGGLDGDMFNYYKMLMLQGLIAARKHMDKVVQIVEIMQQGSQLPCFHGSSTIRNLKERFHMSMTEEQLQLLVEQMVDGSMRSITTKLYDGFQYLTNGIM

PI 3-kinase delta [8] = molecular target: T1, PI 3-kinase delta; test: TR-FRET Adapta assay, assay F; details: read-out: Assay F PI3Kδ IC50
Target sequence in this assay (O00329 whole entry): as the sequence (O00329 whole entry) above
Target sequence in this assay (P27986 461-568 partner): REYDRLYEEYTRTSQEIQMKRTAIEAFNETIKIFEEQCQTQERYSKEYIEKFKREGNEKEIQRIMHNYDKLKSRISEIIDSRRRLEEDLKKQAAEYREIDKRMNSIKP

mTOR = mTOR (Homo sapiens, UniProt P42345); test: Lanthascreen kinase binding assay, assay G; details: read-out: Assay G mTOR IC50
Experimental: Lanthascreen™ Kinase Binding Assay for mTOR (G)
Binding of an inhibitor to the kinase competes for binding with the tracer, resulting in a loss of FRET.
50 nL of compound dilutions were dispensed onto white 384-well small volume polystyrene plate.

Vps34 = Vps34 (Homo sapiens, UniProt Q8NEB9); test: Kinase Glo Luminescent Kinase Assay (Kglo), assay C; assay type: biochemical; details: read-out: Assay C VPS34 IC50
Chain of Vps34 (Q8NEB9 whole entry, species assumed): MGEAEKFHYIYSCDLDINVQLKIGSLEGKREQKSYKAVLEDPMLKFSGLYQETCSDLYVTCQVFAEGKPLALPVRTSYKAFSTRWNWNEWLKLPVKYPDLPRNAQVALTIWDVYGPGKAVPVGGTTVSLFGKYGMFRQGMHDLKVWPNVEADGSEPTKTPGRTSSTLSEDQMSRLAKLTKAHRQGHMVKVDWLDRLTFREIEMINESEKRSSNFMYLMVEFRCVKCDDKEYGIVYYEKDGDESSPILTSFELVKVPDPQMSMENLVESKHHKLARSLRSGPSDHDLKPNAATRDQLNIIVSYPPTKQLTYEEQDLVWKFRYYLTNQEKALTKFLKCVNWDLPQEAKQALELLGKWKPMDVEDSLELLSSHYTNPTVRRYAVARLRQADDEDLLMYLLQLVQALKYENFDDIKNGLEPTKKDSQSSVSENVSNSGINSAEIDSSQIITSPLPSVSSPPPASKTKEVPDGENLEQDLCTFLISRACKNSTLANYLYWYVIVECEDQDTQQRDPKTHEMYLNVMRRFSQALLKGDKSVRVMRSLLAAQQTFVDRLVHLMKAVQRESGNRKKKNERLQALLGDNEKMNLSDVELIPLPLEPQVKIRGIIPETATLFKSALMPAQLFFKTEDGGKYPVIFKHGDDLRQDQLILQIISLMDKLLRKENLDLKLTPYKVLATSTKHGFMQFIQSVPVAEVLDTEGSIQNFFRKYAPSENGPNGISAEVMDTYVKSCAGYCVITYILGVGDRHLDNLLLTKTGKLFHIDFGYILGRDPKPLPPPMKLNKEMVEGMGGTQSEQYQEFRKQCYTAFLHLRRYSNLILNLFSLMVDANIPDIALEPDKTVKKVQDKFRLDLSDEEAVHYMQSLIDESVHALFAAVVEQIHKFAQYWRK

PI 3-kinase beta [9] = molecular target: T2, PI 3-kinase beta; test: Kinase Glo Luminescent Kinase Assay (Kglo), assay B; assay type: biochemical; details: read-out: Assay B PI3Kβ IC50
Experimental: Kinase Glo Luminescent Kinase Assay (Kglo) for Pb 3-Kinase Alpha (A), Pb 3-Kinase Beta (B), Vps34 (C), Pb 4-Kinase Beta (D)
The Kinase Glo Luminescent Kinase Assay (Promega, Madison/Wis., USA) is a homogeneous HTS method of measuring kinase activity by quantifying the amount of ATP remaining in solution following a kinase reaction.
L-α-phosphatidylinositol (PI), provided as 10 mg/ml solution in methanol, was transferred into a glass tube and dried under a nitrogen beam. It was then resuspended in 3% OctylGlucoside (1-0-n-octyl-beta-D-glucopyranoside) by vortexing and stored at 4° C. 5 μL of a mix of PI/OctylGlucoside with the PI 3-kinase alpha and PI 3-kinase beta subtypes, or Vps34 or PI 4-kinase beta were added. Kinase reactions were started by the addition of 5 μl of an ATP-mix containing in a final volume 10 μL 10 mM TRIS-HCl pH 7.5, 3 mM MgCl2, 50 mM NaCl, 0.05% CHAPS, 1 mM DTT and 1 μM ATP at room temperature.
All fits were performed with the program XLfit4 (ID Business Solutions, Guildford, UK).

SMILES | IC50 (PI 3-kinase delta [1]) | IC50 (PI 3-kinase beta [2]) | IC50 (PI 3-kinase alpha [3]) | Assay M RLM CI(int) [4] | IC50 (PI 3-kinase gamma [5]) | IC50 (PI 3-kinase alpha [6]) | IC50 (PI 3-kinase gamma [7]) | IC50 (PI 4-kinase beta) | IC50 (PI 3-kinase delta [8]) | IC50 (mTOR) | IC50 (Vps34) | IC50 (PI 3-kinase beta [9])
Cc1ccc(S(=O)(=O)NCC2COCCN2C)cc1-c1cnc(N)c(-c2cn(C)nc2C)n1 (centres unmarked) [Example 128.2, 3-(5-Amino-6-(1,3-dimethyl-1H-pyrazol-4-yl)pyrazin-2-yl)-4-methyl-N-((4-methylmorpholin-3-yl)methyl)benzenesulfonamide] | 1.57 µM |  | 1.91 µM | 27 µL/min/mg | 0.049 µM | 0.27 µM | 0.09 µM | > 10 µM | 0.45 µM |  | > 10 µM | 
Cc1ccc(S(=O)(=O)NC[C@H]2CCCN2)cc1-c1cnc(N)c(-c2cn(C)nc2C)n1 [Example 106, (R)-3-(5-Amino-6-(1,3-dimethyl-1H-pyrazol-4-yl)pyrazin-2-yl)-4-methyl-N-(pyrrolidin-2-ylmethyl)benzenesulfonamide hydrochloride] | > 10 µM | > 10 µM | > 10 µM | 29 µL/min/mg | 0.025 µM | 0.1 µM | 2.28 µM | 5.6 µM | 0.14 µM |  | > 10 µM | 0.75 µM
CCc1noc(-c2nc(-c3cc(S(=O)(=O)N4CCC(CO)CC4)ccc3C)cnc2N)n1 [Example 141, (1-((3-(5-Amino-6-(3-ethyl-1,2,4-oxadiazol-5-yl)pyrazin-2-yl)-4-methylphenyl)sulfonyl)piperidin-4-yl)methanol] | 5.31 µM | 8.75 µM | 4.7 µM |  | 0.054 µM | 1.77 µM | 0.947 µM | > 9.1 µM | 0.34 µM | > 9.1 µM | > 9.1 µM | > 9.1 µM
Cc1ccc(S(=O)(=O)NCC2COC2)cc1-c1cnc(N)c(-n2cncn2)n1 [Example 131, 3-(5-Amino-6-(1H-1,2,4-triazol-1-yl)pyrazin-2-yl)-4-methyl-N-(oxetan-3-ylmethyl)benzenesulfonamide] |  |  |  | 42 µL/min/mg | 0.042 µM | 0.37 µM | 0.493 µM | 4.95 µM | 0.76 µM | 3.7 µM | 4.3 µM | 2.45 µM
Cc1ccc(S(=O)(=O)NC[C@H]2C[C@@H](O)C2)cc1-c1cnc(N)c(-c2cc(C3CC3)no2)n1 [Example 100, 3-(5-Amino-6-(3-cyclopropylisoxazol-5-yl)pyrazin-2-yl)-N-(((1s,3s)-3-hydroxycyclobutyl)methyl)-4-methylbenzenesulfonamide] |  |  |  | 95 µL/min/mg | 0.003 µM | 0.5 µM | 0.074 µM | 5.75 µM | 0.68 µM | > 9.55 µM | 7.2 µM | 5.3 µM
Cc1ncc(-c2nc(-c3cc(S(=O)(=O)NC4CC(O)C4)ccc3C)cnc2N)s1 (mixture of isomers) [Example 43, 3-(5-Amino-6-(2-methylthiazol-5-yl)pyrazin-2-yl)-N-(3-hydroxycyclobutyl)-4-methylbenzenesulfonamide] | 1.19 µM | > 10 µM | 1.39 µM | 55 µL/min/mg | 0.006 µM | 0.05 µM | 0.015 µM | 1.4 µM | 0.22 µM |  | 0.9 µM | 0.2 µM
Cc1ccc(S(=O)(=O)NOCCN(C)C)cc1-c1cnc(N)c(-n2cncn2)n1 [Example 112.2, 3-(5-Amino-6-(1H-1,2,4-triazol-1-yl)pyrazin-2-yl)-N-(2-(dimethylamino)ethoxy)-4-methylbenzenesulfonamide] | > 10 µM | > 10 µM |  |  | 0.104 µM | 0.86 µM | 0.137 µM | 5.4 µM | 1.2 µM | > 10 µM | > 10 µM | 1.3 µM

Continued, values first:

IC50 (PI 3-kinase delta [1]) | IC50 (PI 3-kinase beta [2]) | IC50 (PI 3-kinase alpha [3]) | Assay M RLM CI(int) [4] | IC50 (PI 3-kinase gamma [5]) | IC50 (PI 3-kinase alpha [6]) | IC50 (PI 3-kinase gamma [7]) | IC50 (PI 4-kinase beta) | IC50 (PI 3-kinase delta [8]) | IC50 (mTOR) | IC50 (Vps34) | IC50 (PI 3-kinase beta [9]) | SMILES
5.63 µM | > 10 µM | 4.92 µM | 97 µL/min/mg | 0.064 µM | 0.69 µM | 0.528 µM | > 9.1 µM | 0.4 µM | > 9.1 µM | > 9.1 µM | 8.11 µM | Cc1cc(-c2nc(-c3cc(S(=O)(=O)NCC4CCOC4)ccc3C)cnc2N)ccn1 (centres unmarked) [Example 129.18, 3-(5-amino-6-(2-methylpyridin-4-yl)pyrazin-2-yl)-4-methyl-N-((tetrahydrofuran-3-yl)methyl)benzenesulfonamide]
4.85 µM | 1.66 µM | 4.9 µM | 118 µL/min/mg | 0.082 µM | 0.75 µM | 0.575 µM | 8 µM | 0.55 µM | > 9.1 µM | > 9.1 µM | > 9.1 µM | Cc1ccc(S(=O)(=O)NCCC(C)(C)O)cc1-c1cnc(N)c(-c2cccnc2)n1 [Example 119.5]
5.86 µM | > 10 µM |  | 170 µL/min/mg | 0.028 µM | 0.3 µM | 0.144 µM | > 9.1 µM | 0.26 µM | > 9.1 µM | > 9.1 µM | > 9.1 µM | Cc1cc(-c2nc(-c3cc(S(=O)(=O)NCCC(C)(O)C(F)(F)F)ccc3C)cnc2N)ccn1 (centres unmarked) [Example 129.13, 3-(5-amino-6-(2-methylpyridin-4-yl)pyrazin-2-yl)-4-methyl-N-(4,4,4-trifluoro-3-hydroxy-3-methylbutyl)benzenesulfonamide]
 |  |  | 188 µL/min/mg | 0.012 µM | 0.15 µM | 0.085 µM | 2.46 µM | 0.1 µM | 8.69 µM | > 9.1 µM | 3.6 µM | Cc1ccc(S(=O)(=O)NCCC(C)(C)O)cc1-c1cnc(N)c(-c2cccs2)n1 [Example 119.45]
 |  |  | 136 µL/min/mg | 0.054 µM | 0.25 µM | 0.06 µM | > 9.1 µM | 0.1 µM | 3.37 µM | > 9.1 µM | 1.78 µM | Cc1csc(-c2nc(-c3cc(S(=O)(=O)NCCC(C)(C)O)ccc3C)cnc2N)c1 [Example 119.43]
 |  |  | 48 µL/min/mg | 0.034 µM | 0.22 µM | 1.28 µM | > 9.1 µM | 0.17 µM | > 9.1 µM | > 9.1 µM | 4.41 µM | Cc1cc(-c2nc(-c3cc(S(=O)(=O)NCCC(C)(C)O)ccc3C)cnc2N)n(C)n1 [Example 119.36]
2.88 µM | 1.72 µM | 4.07 µM |  | 0.161 µM | 0.82 µM | 0.86 µM | 7.7 µM | 0.38 µM | 5.61 µM | 7.99 µM | > 9.1 µM | Cc1ccc(S(=O)(=O)NCCC(C)(C)O)cc1-c1cnc(N)c(-c2cccnc2Cl)n1 [Example 119.6]
